From publication PMC11597817, “Modulation of Multispecific Transporters by Uncaria tomentosa Extract and Its Major Phytoconstituents” (Pharmaceutics, 2024)

What was measured:
[1] = tested on: HeLa; test: Antiproliferative MTT assay; type: cell-based, human; conditions: 30 μM pure natural product, 72 h
Experimental: (§1) For the determination of the antiproliferative properties of the prepared extract and selected alkaloids (isopteropodine, mitraphylline, and uncarine D), an MTT assay was applied on our […] cell panel (see Table S4). […] All were maintained in a minimal essential medium completed with 10% fetal bovine serum, 1% non-essential amino acids, and 1% penicillin–streptomycin at 37 °C in a humidified atmosphere containing 5% CO2. All cell lines were purchased from the European Collection of Cell Cultures (Salisbury, UK), except for SiHa and C33A, which were from the American Tissue Culture Collection, LGC Standards GmbH (Wesel, Germany). Cell culture media and supplements were obtained from Lonza Group Ltd. (Basel, Switzerland). Cells were seeded into 96-well plates (C33A 10,000/well, all others 5000/well); after overnight incubation, the test substances were added and incubated for another 72 h under cell-culturing conditions. Uncaria tomentosa extract and the alkaloids were tested in the 1–90 μg/mL and 1–30 μM ranges, respectively. Finally, 20 μL of 5 mg/mL MTT solution was added to each well and incubated for 4 h; the medium was discarded, and the precipitated formazan crystals were dissolved in DMSO for 60 min with shaking. The absorbance was determined using a microplate reader (SPECTROstar Nano, BMG Labtech GmbH). Two independent experiments were performed with five parallels for each condition. Cisplatin, a clinically used anticancer agent (Ebewe GmbH, Unterach, Austria), was included as a reference compound. Calculations were conducted using the GraphPad Prism 10.0 software (GraphPad Software Inc., San Diego, CA, USA).
(§2) Table S4 – Antiproliferative properties of Uncaria tomentosa extract, three natural products (isopteropodine, mitraphylline, and uncarine D) and the
(§3) reference agent cisplatin.
(§4) Cell line Uncaria tomentosa isopteropodine mitraphylline uncarine D [95% confidence
(§5) 1: The highest applied concentration was 90 μg/mL and 30 μM for the extract and the pure natural products, respectively.
(§6) 2: Inhibitions less than 20% compared to the untreated control were regarded as negligible and were not given numerically.

[2] = tested on: A2780; test: Antiproliferative MTT assay; type: cell-based, human; conditions: 30 μM pure natural product, 72 h
Experimental: as §1, §2, §3, §4, §5, §6

[3] = tested on: HEK293-Mock-B; test: Antiproliferative MTT assay; type: cell-based, human; conditions: 30 μM pure natural product, 72 h
Experimental: as §1, §2, §3, §4, §5, §6

[4] = tested on: HEK293-Mock; test: Antiproliferative MTT assay; type: cell-based, human; conditions: 30 μM pure natural product, 72 h
Experimental: as §1, §2, §3, §4, §5, §6

[5] = tested on: T47D; test: Antiproliferative MTT assay; type: cell-based, human; conditions: 30 μM pure natural product, 72 h
Experimental: as §1, §2, §3, §4, §5, §6

[6] = tested on: C33A; test: Antiproliferative MTT assay; type: cell-based, human; conditions: 30 μM pure natural product, 72 h
Experimental: as §1, §2, §3, §4, §5, §6

[7] = tested on: MCF7; test: Antiproliferative MTT assay; type: cell-based, human; conditions: 30 μM pure natural product, 72 h
Experimental: as §1, §2, §3, §4, §5, §6

[8] = tested on: SiHa; test: Antiproliferative MTT assay; type: cell-based, human; conditions: 30 μM pure natural product, 72 h
Experimental: as §1, §2, §3, §4, §5, §6

[9] = tested on: MDA-MB-231; test: Antiproliferative MTT assay; type: cell-based, human; conditions: 30 μM pure natural product, 72 h
Experimental: as §1, §2, §3, §4, §5, §6

[10] = tested on: pregnane X receptor (PXR); conditions: cited from earlier work

| SMILES | Cell growth inhibition at the highest concentration (% ± SEM) [1] [%] | Cell growth inhibition at the highest concentration (% ± SEM) [2] [%] | Cell growth inhibition at the highest concentration (% ± SEM) [3] [%] | Cell growth inhibition at the highest concentration (% ± SEM) [4] [%] | Cell growth inhibition at the highest concentration (% ± SEM) [5] [%] | Cell growth inhibition at the highest concentration (% ± SEM) [6] [%] | Cell growth inhibition at the highest concentration (% ± SEM) [7] [%] | Cell growth inhibition at the highest concentration (% ± SEM) [8] [%] | Cell growth inhibition at the highest concentration (% ± SEM) [9] [%] | PXR activation [10] |
| --- | --- | --- | --- | --- | --- | --- | --- | --- | --- | --- |
| COC(=O)C1=CO[C@@H](C)[C@@H]2CN3CC[C@@]4(C(=O)Nc5ccccc54)[C@@H]3C[C@H]12 [isopteropodine] | < 20 | < 20 | < 20 | < 20 | < 20 | < 20 | < 20 | 27.38 ± 2.72 | < 20 | PXR activators |
| COC(=O)C1=CO[C@@H](C)[C@H]2CN3CC[C@]4(C(=O)Nc5ccccc54)[C@@H]3C[C@H]12 [mitraphylline] | < 20 | < 20 | < 20 | < 20 | < 20 | < 20 | < 20 | 26.22 ± 1.12 | < 20 | PXR activators |
